Measurements as given in patent US7511033B2, “Dihydro-benzo[B][1,4]diazepin-2-one sulfonamide derivatives” (Hoffmann-La Roche Inc., priority 2007, dated 2009).

Legend:
[1] = target: T1, rat mGlu2 receptor (Rattus norvegicus, UniProt P31421); experiment: [3H]-LY354740 binding on mGlu2 transfected CHO cell membranes; conditions: inhibition of 10 nM [3H]-LY354740 binding, room temperature, 1 hour
T1 construct: expressed in transfected cells; membranes prepared from them
Source text: [^3H]-LY354740 Binding on mGlu2 Transfected CHO Cell Membranes. Transfection and Cell Culture
cDNA encoding the rat mGlu2 receptor protein in pBluescript II was subcloned into the eukaryotic expression vector pcDNA I-amp from Invitrogen Ltd (Paisley, UK). This vector construct (pcD1 mGR2) was co-transfected with a psvNeo plasmid encoding the gene for neomycin resistance, into CHO cells by a modified calcium phosphate method described by Chen & Okayama (1988). The cells were maintained in Dulbecco's Modified Eagle medium with reduced L-glutamine (1 mM final concentration), 36 mg/L L-Proline and 10% dialysed foetal calf serum from Gibco-Invitrogen; the medium was supplemented with 500 microM α-methyl-4-carboxyphenylglycine (MCPG). Selection was made in the presence of G-418 (300 ug/ml final concentration). Clones were identified by reverse transcription of 5 μg total RNA, followed by PCR using mGlu2 receptor specific primers 5′-[…]-3′ and 5′-[…]-3′ in 60 mM Tris HCl (pH 10), 15 mM (NH4)2SO4, 2 mM MgCl2, 25 units/ml Taq Polymerase with 30 cycles annealing at 60° C. for 1 min., extension at 72° C. for 30 s, and 1 min. 95° C. denaturation.
Cells, cultured as above, were harvested and washed three times with cold PBS and frozen at −80° C. The pellet was resuspended in cold 20 mM HEPES-NaOH buffer containing 10 mM EDTA (pH 7.4), and homogenized with a polytron (Kinematica, AG, Littau, Switzerland) for 10 s at 10 000 rpm. After centrifugation for 30 min. at 4° C., the pellet was washed once with cold 20 mM HEPES-NaOH buffer containing 0.1 mM EDTA, (pH 7.4). After a second centrifugation for 30 min. at 4° C. the pellet was resuspended in cold 20 mM HEPES-NaOH buffer containing 0.1 mM EDTA, (pH 7.4). Protein content was measured using the Micro BCA method from Pierce-Perbio (Rockford, Ill., USA) using bovine serum albumin as standard.
After thawing, the membranes were resuspended in cold 50 mM Tris-HCl buffer containing 2 mM MgCl2 (pH 7.4) (binding buffer). The final concentration of the membranes in the assays was 25 μg protein/ml. Inhibition experiments were performed with membranes incubated with 10 nM [^3H]-LY354740 at room temperature, for 1 hour, in presence of various concentrations of the compound to be tested. Following the incubations, membranes were filtered onto Whatmann GF/B glass fiber filters or onto GF/B Unifilter plates and washed 5 times with cold binding buffer. Non specific binding was measured in the presence of 10 μM (2S,2′R,3′R)-2-(2′3′-Dicarboxycyclopropyl)glycine (DCG IV from Tocris, Ellisville, Mo. USA). After transfer of the filters into plastic vials containing 10 ml of Ultima-gold scintillation fluid from Perkin-Elmer (Boston, Mass., USA), the radioactivity was measured by liquid scintillation in a Tri-Carb 2500 TR counter (Packard, Zürich, Switzerland). For 96-Unifilter plates the radioactivity was measured after addition of Microscint 40 scintillation fluid (Perkin Elmer, Boston Mass.) using a TopCount NXT (Packard)
The inhibition curves were fitted with a four parameter logistic equation giving IC50 values, and Hill coefficients.

T1 sequence (P31421 19-872): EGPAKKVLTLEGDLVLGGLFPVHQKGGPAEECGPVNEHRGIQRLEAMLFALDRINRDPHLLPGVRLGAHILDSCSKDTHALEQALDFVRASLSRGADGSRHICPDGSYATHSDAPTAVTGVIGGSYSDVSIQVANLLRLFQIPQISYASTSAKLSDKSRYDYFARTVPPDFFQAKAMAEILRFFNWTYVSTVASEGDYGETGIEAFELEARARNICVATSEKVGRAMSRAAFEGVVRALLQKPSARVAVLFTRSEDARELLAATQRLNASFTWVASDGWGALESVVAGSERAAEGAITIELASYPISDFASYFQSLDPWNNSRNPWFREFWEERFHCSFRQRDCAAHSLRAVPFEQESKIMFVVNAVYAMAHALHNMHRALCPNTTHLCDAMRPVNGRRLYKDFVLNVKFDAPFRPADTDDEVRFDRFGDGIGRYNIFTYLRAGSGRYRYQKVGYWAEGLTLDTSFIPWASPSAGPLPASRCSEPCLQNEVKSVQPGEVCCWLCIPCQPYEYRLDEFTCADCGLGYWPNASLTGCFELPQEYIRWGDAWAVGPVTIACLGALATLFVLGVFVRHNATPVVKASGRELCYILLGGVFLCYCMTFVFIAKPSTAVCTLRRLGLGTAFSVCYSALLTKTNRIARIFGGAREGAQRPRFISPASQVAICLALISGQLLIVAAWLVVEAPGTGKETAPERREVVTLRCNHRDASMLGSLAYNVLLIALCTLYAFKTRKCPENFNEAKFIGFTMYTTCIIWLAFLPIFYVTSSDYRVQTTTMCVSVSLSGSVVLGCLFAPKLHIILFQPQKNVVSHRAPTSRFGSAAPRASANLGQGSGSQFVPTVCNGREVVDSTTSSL

| Ki [1] [nM] | melting point | SMILES |
| --- | --- | --- |
| 1.9 | > 260 °C | Cc1cc2c(cc1C(F)(F)F)NC(=O)CC(c1cccc(-c3ccc(S(N)(=O)=O)cc3)c1)=N2 [Example 1, 3′-(8-Methyl-4-oxo-7-trifluoromethyl-4,5-dihydro-3H-benzo[b][1,4]diazepin-2-yl)-biphenyl-4-sulfonic acid amide] |
| 20 | 133 °C (dec.) | Cc1cc2c(cc1C(F)(F)F)NC(=O)CC(c1cccc(-c3cccc(S(=O)(=O)NC(C)(C)C)c3)c1)=N2 [Example 2, 3′-(8-Methyl-4-oxo-7-trifluoromethyl-4,5-dihydro-3H-benzo[b][1,4]diazepin-2-yl)-biphenyl-3-sulfonic acid tert-butylamide] |
| 0.9 | 235 to 239 °C (dec.) | Cc1cc2c(cc1C(F)(F)F)NC(=O)CC(c1cccc(-c3cccc(S(N)(=O)=O)c3)c1)=N2 [Example 3, 3′-(8-Methyl-4-oxo-7-trifluoromethyl-4,5-dihydro-3H-benzo[b][1,4]diazepin-2-yl)-biphenyl-3-sulfonic acid amide] |
| 12 | 179 to 181 °C | CC(C)(C)NS(=O)(=O)c1cccc(-c2cccc(C3=Nc4ccc(C(F)(F)F)cc4NC(=O)C3)c2)c1 [Example 4, 3′-(4-Oxo-7-trifluoromethyl-4,5-dihydro-3H-benzo[b][1,4]diazepin-2-yl)-biphenyl-3-sulfonic acid tert-butylamide] |
| 16 | 229 to 233 °C | CC(C)(C)NS(=O)(=O)c1ccc(-c2cccc(C3=Nc4ccc(C(F)(F)F)cc4NC(=O)C3)c2)cc1 [Example 5, 3′-(4-Oxo-7-trifluoromethyl-4,5-dihydro-3H-benzo[b][1,4]diazepin-2-yl)-biphenyl-4-sulfonic acid tert-butylamide] |
| 9 | 215 to 218 °C | CCOc1cc2c(cc1C(F)(F)F)NC(=O)CC(c1cccc(-c3cccc(S(=O)(=O)NC(C)(C)C)c3)c1)=N2 [Example 6, 3′-(8-Ethoxy-4-oxo-7-trifluoromethyl-4,5-dihydro-3H-benzo[b][1,4]diazepin-2-yl)-biphenyl-3-sulfonic acid tert-butylamide] |
| 30 | > 260 °C | CCOc1cc2c(cc1C(F)(F)F)NC(=O)CC(c1cccc(-c3ccc(S(=O)(=O)NC(C)(C)C)cc3)c1)=N2 [Example 7, 3′-(8-Ethoxy-4-oxo-7-trifluoromethyl-4,5-dihydro-3H-benzo[b][1,4]diazepin-2-yl)-biphenyl-4-sulfonic acid tert-butylamide] |
| 1.7 | 170 °C (dec.) | NS(=O)(=O)c1cccc(-c2cccc(C3=Nc4ccc(C(F)(F)F)cc4NC(=O)C3)c2)c1 [Example 8, 3′-(4-Oxo-7-trifluoromethyl-4,5-dihydro-3H-benzo[b][1,4]diazepin-2-yl)-biphenyl-3-sulfonic acid amide] |
| 3 | 195 to 210 °C (dec.) | NS(=O)(=O)c1ccc(-c2cccc(C3=Nc4ccc(C(F)(F)F)cc4NC(=O)C3)c2)cc1 [Example 9, 3′-(4-Oxo-7-trifluoromethyl-4,5-dihydro-3H-benzo[b][1,4]diazepin-2-yl)-biphenyl-4-sulfonic acid amide] |
| 2.7 | 210 to 220 °C (dec.) | CCOc1cc2c(cc1C(F)(F)F)NC(=O)CC(c1cccc(-c3cccc(S(N)(=O)=O)c3)c1)=N2 [Example 10, 3′-(8-Ethoxy-4-oxo-7-trifluoromethyl-4,5-dihydro-3H-benzo[b][1,4]diazepin-2-yl)-biphenyl-3-sulfonic acid amide] |
| 3 | 245 to 250 °C (dec.) | CCOc1cc2c(cc1C(F)(F)F)NC(=O)CC(c1cccc(-c3ccc(S(N)(=O)=O)cc3)c1)=N2 [Example 11, 3′-(8-Ethoxy-4-oxo-7-trifluoromethyl-4,5-dihydro-3H-benzo[b][1,4]diazepin-2-yl)-biphenyl-4-sulfonic acid amide] |
| 3.1 | 246 °C (dec.) | CN(C)c1cc2c(cc1C(F)(F)F)NC(=O)CC(c1cccc(-c3ccc(S(N)(=O)=O)cc3)c1)=N2 [Example 12, 3′-(8-Dimethylamino-4-oxo-7-trifluoromethyl-4,5-dihydro-3H-benzo[b][1,4]diazepin-2-yl)-biphenyl-4-sulfonic acid amide] |
| 1.2 | 258 °C (dec.) | CN(C)c1cc2c(cc1C(F)(F)F)NC(=O)CC(c1cccc(-c3cccc(S(N)(=O)=O)c3)c1)=N2 [Example 13, 3′-(8-Dimethylamino-4-oxo-7-trifluoromethyl-4,5-dihydro-3H-benzo[b][1,4]diazepin-2-yl)-biphenyl-3-sulfonic acid amide] |
| 17 | 236 °C (dec.) | CC(C)CN(C)c1cc2c(cc1C(F)(F)F)NC(=O)CC(c1cccc(-c3ccc(S(N)(=O)=O)cc3)c1)=N2 [Example 14, 3′-[8-(Isobutyl-methyl-amino)-4-oxo-7-trifluoromethyl-4,5-dihydro-3H-benzo[b][1,4]diazepin-2-yl]-biphenyl-4-sulfonic acid amide] |
| 8.7 | 232 °C (dec.) | CC(C)CN(C)c1cc2c(cc1C(F)(F)F)NC(=O)CC(c1cccc(-c3cccc(S(N)(=O)=O)c3)c1)=N2 [Example 15, 3′-[8-(Isobutyl-methyl-amino)-4-oxo-7-trifluoromethyl-4,5-dihydro-3H-benzo[b][1,4]diazepin-2-yl]-biphenyl-3-sulfonic acid amide] |
| 5.6 | 240 to 250 °C (dec.) | NS(=O)(=O)c1ccc(-c2cccc(C3=Nc4ccc(-c5ccccc5F)cc4NC(=O)C3)c2)cc1 [Example 16, 3′-[7-(2-Fluoro-phenyl)-4-oxo-4,5-dihydro-3H-benzo[b][1,4]diazepin-2-yl]-biphenyl-4-sulfonic acid amide] |
| 2.2 | 230 to 232 °C | NS(=O)(=O)c1cccc(-c2cccc(C3=Nc4ccc(-c5ccccc5F)cc4NC(=O)C3)c2)c1 [Example 17, 3′-[7-(2-Fluoro-phenyl)-4-oxo-4,5-dihydro-3H-benzo[b][1,4]diazepin-2-yl]-biphenyl-3-sulfonic acid amide] |
| 21 |  | CC(C)CNc1cc2c(cc1C(F)(F)F)NC(=O)CC(c1cccc(-c3ccc(S(N)(=O)=O)cc3)c1)=N2 [Example 18, 3′-(8-Isobutylamino-4-oxo-7-trifluoromethyl-4,5-dihydro-3H-benzo[b][1,4]diazepin-2-yl)-biphenyl-4-sulfonic acid amide] |
| 3.6 | 251 °C (dec.) | CC(C)CNc1cc2c(cc1C(F)(F)F)NC(=O)CC(c1cccc(-c3cccc(S(N)(=O)=O)c3)c1)=N2 [Example 19, 3′-(8-Isobutylamino-4-oxo-7-trifluoromethyl-4,5-dihydro-3H-benzo[b][1,4]diazepin-2-yl)-biphenyl-3-sulfonic acid amide] |
